In PMC9502272, “A Metabolomics Approach for Predicting OATP1B-Type Transporter-Mediated Drug–Drug Interaction Liabilities” (Pharmaceutics, 2022):
Values joined by “and” are separate entries in the source; they are usually repeats but may differ in a detail not shown here. Equal entries are not always repeated.

What was measured:
Oatp1b2 [1] = molecular target: T1, Oatp1b2 (Mus musculus, UniProt Q9JJL3); assay: Baseline plasma CDCA-24G in Oatp1b2(−/−) vs wild-type mice, validated quantitative LC-MS/MS; type: in vivo; set-up: from tissue; host or cells: living wild-type mice (DBA/1LacJ or FVB background); hepatic transporter in vivo; conditions: untreated, n = 6 per group
T1 sequence (Q9JJL3 1-689): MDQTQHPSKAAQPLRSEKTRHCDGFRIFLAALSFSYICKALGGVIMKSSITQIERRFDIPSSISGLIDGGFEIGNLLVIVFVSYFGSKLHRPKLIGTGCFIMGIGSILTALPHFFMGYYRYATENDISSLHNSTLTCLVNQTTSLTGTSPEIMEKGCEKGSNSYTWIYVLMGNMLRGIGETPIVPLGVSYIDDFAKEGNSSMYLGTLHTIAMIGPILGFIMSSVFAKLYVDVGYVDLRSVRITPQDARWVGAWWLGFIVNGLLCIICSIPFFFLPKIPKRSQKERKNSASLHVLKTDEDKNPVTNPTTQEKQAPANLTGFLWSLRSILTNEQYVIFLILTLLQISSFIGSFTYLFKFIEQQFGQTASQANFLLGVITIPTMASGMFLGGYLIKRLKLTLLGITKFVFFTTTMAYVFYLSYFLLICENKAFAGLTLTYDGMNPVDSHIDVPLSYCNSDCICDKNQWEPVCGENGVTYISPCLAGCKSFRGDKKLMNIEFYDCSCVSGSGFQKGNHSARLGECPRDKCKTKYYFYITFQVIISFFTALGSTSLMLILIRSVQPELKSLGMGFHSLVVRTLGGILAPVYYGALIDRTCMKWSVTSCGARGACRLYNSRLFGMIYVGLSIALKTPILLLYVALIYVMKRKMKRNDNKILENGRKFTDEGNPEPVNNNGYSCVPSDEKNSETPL
Method: (§1) Plasma concentrations of levels of CDCA-24G and glycochenodeoxycholate-3-sulfate (GCDCA-S) were determined using LC-MS/MS using a Vanquish UHPLC coupled with a Quantiva triple quadrupole mass spectrometer (Thermo Fisher Scientific, Waltham, MA, USA). An Accucore aQ column (50 × 2.1 mm, dp = 2.6 μm; Thermo Fisher Scientific) was protected by a C18 AQUASIL guard cartridge (2.1 mm × 10 mm, dp = 3 μm; Thermo Fisher Scientific). The injection volume of sample was 5.0 μL. The temperature of the autosampler rack was 4 °C, and the temperature of the column was maintained at 20 °C. The mobile phase was composed of solvent A (2 mmol ammonium acetate in water) and solvent B (100% methanol), and the total run time was 4.6 min. The gradient conditions were as follows: 0–0.5 min, 45% B; 0.5–2.0 min, 45 to 90%, 2.0–4.0 min, 90% B; 4.0–4.6 min, 45% B, delivered at a flow rate of 0.4 mL/min. […] Precursor molecular ions, and product ions were recorded for the confirmation and detection of GCDCA-S (528.4 > 448.3) and CDCA-24G (567.4 > 391.1), using [^2H5]-GCDCA-S (535.5 > 453.3) and [^2H5]-CDCA-24G (572.5 > 396.1) as respective internal standards. The lower limit of quantitation (LLOQ) for both analytes was determined to be 0.5 ng/mL. […]

OATP1B1 = molecular target: T2, OATP1B1 (Homo sapiens, UniProt Q9Y6L6); assay: Uptake in HEK293 cells overexpressing OATP1B1; type: cell-based; conditions: HEK293 cells overexpressing OATP1B1, 5 min uptake, vs empty vector
T2 construct: expressed in transfected cells; host or cells: HEK293 (ATCC)
T2 sequence (Q9Y6L6 1-691): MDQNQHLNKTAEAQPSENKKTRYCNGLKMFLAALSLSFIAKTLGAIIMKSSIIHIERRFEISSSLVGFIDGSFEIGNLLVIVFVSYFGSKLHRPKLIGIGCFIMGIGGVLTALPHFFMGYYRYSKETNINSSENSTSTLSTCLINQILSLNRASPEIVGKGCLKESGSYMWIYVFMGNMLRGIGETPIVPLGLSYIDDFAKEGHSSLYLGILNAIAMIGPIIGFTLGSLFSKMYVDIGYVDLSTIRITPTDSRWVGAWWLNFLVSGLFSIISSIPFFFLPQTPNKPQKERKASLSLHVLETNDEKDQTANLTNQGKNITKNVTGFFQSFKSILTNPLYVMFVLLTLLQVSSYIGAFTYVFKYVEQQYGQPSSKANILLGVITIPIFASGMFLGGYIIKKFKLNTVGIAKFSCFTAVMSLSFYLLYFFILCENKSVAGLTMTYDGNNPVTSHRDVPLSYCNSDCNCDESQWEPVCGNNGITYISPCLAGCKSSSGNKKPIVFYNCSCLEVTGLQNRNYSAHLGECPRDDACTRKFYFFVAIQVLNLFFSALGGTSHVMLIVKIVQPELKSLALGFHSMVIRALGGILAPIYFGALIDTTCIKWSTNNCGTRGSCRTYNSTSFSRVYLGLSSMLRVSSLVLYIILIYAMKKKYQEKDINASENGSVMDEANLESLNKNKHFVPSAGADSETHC
Method: The generation of human embryonic kidney (HEK293) cells (ATCC) engineered to overexpress OATP1B1, Oatp1b2, or empty vector, the cell culture conditions, and general details of uptake studies have been reported in detail elsewhere. Briefly, cells were grown to 90% confluence on poly-lysine coated multi-well plates. […] The pre-treatment medium was rinsed off with warm 1× PBS followed by the addition of the test compounds for an incubation period of 5 min. After incubation, transport was halted by aspirating the medium and rinsing the cells three times with ice-cold 1× PBS. After lysing cells with 0.1 N HCl, and subsequent adding methanol, 20 μL aliquots were mixed with 60 μL of acetonitrile containing relevant internal standards. After vortex mixing, the mixtures were centrifuged, and the supernatants were used for quantitative analysis by LC-MS/MS. Drug uptake results were normalized to total protein content and then to data obtained in cells carrying an empty vector plasmid, which was set to 100%.

Oatp1b2 [2] = molecular target: T1, Oatp1b2; assay: Untargeted metabolomics of plasma from untreated wild-type and Oatp1b2(−/−) mice
human OATP1B1 = assay: Baseline plasma CDCA-24G in Oatp1a/1b(−/−) mice with transgenic hepatic expression of OATP1B1 (OATP1B1(tg)); type: in vivo, mouse; conditions: range stated jointly for OATP1B1(tg) and OATP1B3(tg)
Method: as §1

human OATP1B3 = assay: Baseline plasma CDCA-24G in Oatp1a/1b(−/−) mice with transgenic hepatic expression of OATP1B3 (OATP1B3(tg)); type: in vivo; conditions: range stated jointly for OATP1B1(tg) and OATP1B3(tg)
Method: as §1

## C[C@H](CCC(=O)O[C@@H]1O[C@H](C(=O)O)[C@@H](O)[C@H](O)[C@H]1O)[C@H]1CC[C@H]2[C@@H]3[C@H](O)C[C@@H]4C[C@H](O)CC[C@]4(C)[C@H]3CC[C@]12C [CDCA-24G, chenodeoxycholate-24-glucuronide]
Oatp1b2 [1]
  Plasma concentration of CDCA-24G in Oatp1b2(−/−) mice relative to wild type: 31 fold and > 30 fold
OATP1B1
  Transport by human OATP1B-type transporter: efficiently transported
Oatp1b2 [2]; based on semi-quantitative analysis
  Increase of plasma level in Oatp1b2(−/−) mice vs. wild-type mice: ≈ 98 fold
Oatp1b2 [2]; plasma of untreated Oatp1b2-deficient (KO) vs wild-type (WT) mice, semi-quantitative, positive = higher in KO, n = 6 per group
  Fold of Change KO/WT: 97.9
Oatp1b2 [2]; plasma of untreated Oatp1b2-deficient mice, raw area counts rescaled to median = 1
  Mean value KO: 1.15
Oatp1b2 [2]; plasma of untreated wild-type mice, raw area counts rescaled to median = 1
  Mean value WT: .0120
Human OATP1B1
  Baseline CDCA-24G level, fold lower than in Oatp1a/1b(−/−) mice: 5- to 7 fold
Human OATP1B3
  Baseline CDCA-24G level, fold lower than in Oatp1a/1b(−/−) mice: 5- to 7 fold
